The text below walks through data of patent publication US20230060425A1, “FUSED BICYCLIC HETEROCYCLE DERIVATIVES AS PESTICIDES” (Bayer Aktiengesellschaft, priority 2019, published 2023).

Like-named read-outs stand apart in the source and are kept apart here.

What all share (type): in vivo
Experiment [1] relates to Spodoptera frugiperda. Description: Spodoptera frugiperda spray test (SPODFR), comparative. To be noted: 168 h, 0.8 g of ai/ha, 7 dat, read-out: % Efficacy. On the procedure: Spodoptera frugiperda—Spray Test (SPODFR)
(§1) Solvent: • 78.0 parts by weight of acetone • 1.5 parts by weight of dimethylformamide
(§2) Emulsifier: alkylaryl polyglycol ether
(§3) To produce a suitable active compound preparation, 1 part by weight of active compound is dissolved using the stated parts by weight of solvent and made up with water containing an emulsifier concentration of 1000 ppm until the desired concentration is attained. To produce further test concentrations, the formulation is diluted with emulsifier-containing water.
Leaf discs of maize (Zea mays) are sprayed with an active compound formulation of the desired concentration and, after drying, populated with caterpillars of the armyworm (Spodoptera frugiperda).
After the desired period of time, the efficacy in % is determined. 100% means that all the caterpillars have been killed; 0% means that no caterpillar has been killed.

Another experiment has as its system Phaedon cochleariae. As to the kind of experiment: Phaedon cochleariae test on cabbage plants (PHAECO S). To be noted: 6 dai, read-out: % Efficacy. The protocol: Phaedon cochleariae Test (PHAECO S)
Solvent: 14 parts by weight of dimethylformamide
Emulsifier: 2 parts by weight of alkylaryl polyglycol ether
To produce a suitable active compound formulation, 1 part by weight of active compound is dissolved with the stated parts by weight of solvent and emulsifier and made up to the desired concentration with water. To produce further test concentrations, water is used for dilution. In the event that addition of ammonium salts or/and penetrants (rapeseed oil methyl ester) is required, these are each pipetted in at a concentration of 1000 ppm after the finished formulation solution has been diluted.
Cabbage plants (Brassica oleracea var. sabauda) are sprayed with an active compound formulation of the desired concentration and populated with 10 L2 larvae of the mustard beetle (Phaedon cochleariae).
After the desired time, the kill in % is determined. 100% means that all the larvae have been killed and 0% means that none of the larvae have been killed.

For a further experiment, the system named is Rhipicephalus sanguineus. As to the kind of experiment: Rhipicephalus sanguineus in vitro contact test with adult brown dog ticks. To be noted: application rate 5 μg/cm^2; after 48 h; ticks dead or moribund. The protocol:
Rhipicephalus sanguineus—In Vitro Contact Tests with Adult Brown Dog Ticks
For the coating of the test tubes, 9 mg of active compound are first dissolved in 1 ml of acetone p.a. and then diluted to the desired concentration with acetone p.a. 250 μl of the solution are distributed homogeneously on the inner walls and the base of a 25 ml glass tube by turning and rocking on an orbital shaker (rocking rotation at 30 rpm for 2 h). With 900 ppm of active compound solution and internal surface area 44.7 cm^2, given homogeneous distribution, an area-based dose of 5 μg/cm^2 is achieved.
After the solvent has evaporated off, the tubes are populated with 5-10 adult dog ticks (Rhipicephalus sanguineus), sealed with a perforated plastic lid and incubated in a horizontal position in the dark at room temperature and ambient humidity. After 48 h, efficacy is determined. To this end, the ticks are knocked to the base of the tube and incubated on a hotplate at 45-50° C. for not more than 5 min. Ticks which remain motionless on the base or move in such an uncoordinated manner that they are unable to deliberately avoid the heat by climbing upwards are considered to be dead or moribund.
An efficacy of 100% means that all the ticks were dead or moribund. 0% efficacy means that none of the ticks were harmed.

For the next experiment, the system named is Ctenocephalides felis. As to the kind of experiment: Ctenocephalides felis oral test. To be noted: 48 h, application rate 100 ppm, in citrated cattle blood, after 2 days, read-out: efficacy (kill in %). The procedure, abridged:
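Adult unfed cat fleas (~20 per chamber) fed through parafilm membrane on citrated cattle blood containing compound (DMSO formulation diluted in blood to test concentration). Kill (%) scored after 2 days; 100% = all fleas dead, 0% = none.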

Experiment [2] concerns Myzus persicae. Description: Myzus persicae spray test (MYZUPE), comparative. To be noted: 120 h, 5 dat, read-out: % Efficacy. The protocol:
Myzus persicae—Spray Test (MYZUPE)
as §1, §2, §3
Discs of Chinese cabbage leaves (Brassica pekinensis) infested by all stages of the green peach aphid (Myzus persicae) are sprayed with an active compound preparation of the desired concentration.
After the desired period of time, the efficacy in % is determined. 100% means that all the aphids have been killed; 0% means that no aphids have been killed.

For experiment [3], the system named is Spodoptera frugiperda. As to the kind of experiment: Spodoptera frugiperda spray test. To be noted: foliar, 168 h, application rate 100 g/ha, maize leaf discs, after 7 days, read-out: efficacy. The protocol: Spodoptera frugiperda—Spray Test
as §1, §2
To produce further test concentrations, the formulation is diluted with emulsifier-containing water.
After 7 days, the efficacy in % is determined. 100% means that all the caterpillars have been killed; 0% means that no caterpillar has been killed.

The test system of experiment [4] is Myzus persicae. Description: Myzus persicae spray test. To be noted: foliar, 120 h, application rate 100 g/ha, Chinese cabbage leaf discs, after 5 days, read-out: efficacy. The procedure, abridged: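 Chinese cabbage leaf discs infested with all stages of Myzus persicae were sprayed with compound in acetone/DMF, diluted in water containing 1000 ppm emulsifier. Efficacy in % assessed after 5 days: 100% all aphids killed, 0% none killed.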

As for `CCS(=O)(=O)c1c(-c2nc3cc(C(F)(F)F)cnc3n2C)ncc2cc(Br)ccc12` [Example I-037, 7-Bromo-4-ethylsulfonyl-3-[3-methyl-6-(trifluoromethyl)imidazo[4,5-b]pyridin-2-yl]isoquinoline], the Emax at 0.8 g/ha in the experiment with Spodoptera frugiperda [1] was 100%. Moreover, the Emax at 0.16 ppm was found to be 80% in the experiment with Phaedon cochleariae (120 h, infection 5 dat) and 60% with Phaedon cochleariae (288 h, infection 12 dat). The Emax at 0.8 ppm in the experiment with Phaedon cochleariae (288 h, 0.8 ppm, infection 12 dat) came out at 100%. In the experiment with Rhipicephalus sanguineus, this compound yielded an efficacy of 100%. Also, in the experiment on Ctenocephalides felis, the pest or weed control at 100 ppm was 100%. In addition, the Emax at 4 g/ha with Myzus persicae [2] (4 g of ai/ha) was 70%. In the experiment with Myzus persicae [2] (20 g of ai/ha), the Emax at 20 g/ha came out at 90%. In addition, the pest or weed control at 100 g/ha with Spodoptera frugiperda [3] and with Myzus persicae [4] was 100% throughout.
